Experimental data taken from PubChem BioAssay (NCI).
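Test compounds were applied to cells in 96-well plates for 48 hours at 5 doses. TGI: concentration producing complete growth inhibition.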

Experiments:
Assay in all cases: DTP human tumour cell line panel, 48 h
SK-MEL-2 melanoma = test system: SK-MEL-2 melanoma
SNB-75 CNS = test system: SNB-75 CNS
TK-10 renal = test system: TK-10 renal
U251 CNS = test system: U251 CNS
SF-539 CNS = test system: SF-539 CNS
CCRF-CEM leukemia = test system: CCRF-CEM leukemia
IGROV1 ovarian = test system: IGROV1 ovarian
MOLT-4 leukemia = test system: MOLT-4 leukemia
KM12 colon = test system: KM12 colon
LXFL 529 NSCLC = test system: LXFL 529 NSCLC
SF-268 CNS = test system: SF-268 CNS
SF-295 CNS = test system: SF-295 CNS
SNB-78 CNS = test system: SNB-78 CNS
DLD-1 colon = test system: DLD-1 colon
HL-60(TB) leukemia = test system: HL-60(TB) leukemia
HCC-2998 colon = test system: HCC-2998 colon
LOX IMVI melanoma = test system: LOX IMVI melanoma
SW-620 colon = test system: SW-620 colon
UACC-257 melanoma = test system: UACC-257 melanoma
SR leukemia = test system: SR leukemia
SK-OV-3 ovarian = test system: SK-OV-3 ovarian
UACC-62 melanoma = test system: UACC-62 melanoma
HCT-15 colon = test system: HCT-15 colon
MALME-3M melanoma = test system: MALME-3M melanoma
M14 melanoma = test system: M14 melanoma
NCI-H522 lung = test system: NCI-H522 lung
DMS 273 small cell lung = test system: DMS 273 small cell lung
M19-MEL melanoma = test system: M19-MEL melanoma
NCI-H460 lung = test system: NCI-H460 lung
DMS 114 small cell lung = test system: DMS 114 small cell lung
ACHN renal = test system: ACHN renal
HOP-18 NSCLC = test system: HOP-18 NSCLC
HOP-62 NSCLC = test system: HOP-62 NSCLC
OVCAR-5 ovarian = test system: OVCAR-5 ovarian
RXF-631 renal = test system: RXF-631 renal
OVCAR-4 ovarian = test system: OVCAR-4 ovarian
K-562 leukemia = test system: K-562 leukemia
NCI-H226 lung = test system: NCI-H226 lung
SK-MEL-5 melanoma = test system: SK-MEL-5 melanoma
COLO 205 colon = test system: COLO 205 colon
OVCAR-8 ovarian = test system: OVCAR-8 ovarian
NCI-H23 lung = test system: NCI-H23 lung
786-0 renal = test system: 786-0 renal
CAKI-1 renal = test system: CAKI-1 renal
SNB-19 CNS = test system: SNB-19 CNS
A498 renal = test system: A498 renal
HOP-92 NSCLC = test system: HOP-92 NSCLC
RPMI-8226 leukemia = test system: RPMI-8226 leukemia
SK-MEL-28 melanoma = test system: SK-MEL-28 melanoma
EKVX NSCLC = test system: EKVX NSCLC
XF 498 CNS = test system: XF 498 CNS
HT29 colon = test system: HT29 colon
KM20L2 colon = test system: KM20L2 colon
UO-31 renal = test system: UO-31 renal
HCT-116 colon = test system: HCT-116 colon
A549 NSCLC = test system: A549 NSCLC
SN12C renal = test system: SN12C renal
OVCAR-3 ovarian = test system: OVCAR-3 ovarian
RXF 393 renal = test system: RXF 393 renal

Cc1csc2nc(-c3ccncc3)cn12 was tested, and the TGI (SK-MEL-2 melanoma) was > 100 µM, the TGI (SNB-75 CNS) was > 100 µM and the TGI (TK-10 renal) was > 100 µM. The TGI (U251 CNS) was > 72.6 µM, the TGI (SF-539 CNS) was > 65.9 µM and the TGI (CCRF-CEM leukemia) was > 61 µM. For the same compound, the TGI (IGROV1 ovarian) was > 100 µM, the TGI (MOLT-4 leukemia) was > 100 µM and the TGI (KM12 colon) was > 100 µM. For the same compound, the TGI (LXFL 529 NSCLC) was > 76.5 µM, the TGI (SF-268 CNS) was > 100 µM and the TGI (SF-295 CNS) was > 100 µM. For the same compound, the TGI (SNB-78 CNS) was > 100 µM, the TGI (DLD-1 colon) was > 100 µM and the TGI (HL-60(TB) leukemia) was > 52.4 µM. For the same compound, the TGI (HCC-2998 colon) was > 100 µM, the TGI (LOX IMVI melanoma) was > 61.5 µM and the TGI (SW-620 colon) was > 54.2 µM. The TGI (UACC-257 melanoma) was > 100 µM, the TGI (SR leukemia) was 51 µM and the TGI (SK-OV-3 ovarian) was > 100 µM. For the same compound, the TGI (UACC-62 melanoma) was > 100 µM, the TGI (HCT-15 colon) was > 56.7 µM and the TGI (MALME-3M melanoma) was > 100 µM. For the same compound, the TGI (M14 melanoma) was > 100 µM, the TGI (NCI-H522 lung) was > 100 µM and the TGI (DMS 273 small cell lung) was 41 µM. For the same compound, the TGI (M19-MEL melanoma) was > 100 µM, the TGI (NCI-H460 lung) was > 61.4 µM and the TGI (DMS 114 small cell lung) was > 60.9 µM. For the same compound, the TGI (ACHN renal) was > 100 µM, the TGI (HOP-18 NSCLC) was > 100 µM and the TGI (HOP-62 NSCLC) was > 100 µM. The TGI (OVCAR-5 ovarian) was > 100 µM, the TGI (RXF-631 renal) was > 100 µM and the TGI (OVCAR-4 ovarian) was > 100 µM. The TGI (K-562 leukemia) was > 65.4 µM, the TGI (NCI-H226 lung) was > 100 µM and the TGI (SK-MEL-5 melanoma) was > 100 µM. For the same compound, the TGI (COLO 205 colon) was > 79.7 µM, the TGI (OVCAR-8 ovarian) was > 100 µM and the TGI (NCI-H23 lung) was > 100 µM. The TGI (786-0 renal) was 34.5 µM, the TGI (CAKI-1 renal) was > 100 µM and the TGI (SNB-19 CNS) was > 100 µM. The TGI (A498 renal) was > 100 µM, the TGI (HOP-92 NSCLC) was > 100 µM and the TGI (RPMI-8226 leukemia) was > 64.1 µM. For the same compound, the TGI (SK-MEL-28 melanoma) was > 100 µM, the TGI (EKVX NSCLC) was > 100 µM and the TGI (XF 498 CNS) was > 100 µM. The TGI (HT29 colon) was > 100 µM, the TGI (KM20L2 colon) was > 100 µM and the TGI (UO-31 renal) was > 100 µM. For the same compound, the TGI (HCT-116 colon) was > 59.3 µM, the TGI (A549 NSCLC) was > 100 µM and the TGI (SN12C renal) was > 100 µM. For the same compound, the TGI (OVCAR-3 ovarian) was > 100 µM.
Cc1ccccc1NC(=O)/C(=N/NC(=O)CC#N)C1C(=O)N(c2ccccc2)N=C1N (configuration not stated) was tested, and the TGI (SK-MEL-2 melanoma) was > 100 µM, the TGI (SNB-75 CNS) was > 100 µM and the TGI (TK-10 renal) was > 100 µM. The TGI (U251 CNS) was > 100 µM, the TGI (SF-539 CNS) was > 100 µM and the TGI (CCRF-CEM leukemia) was 88.9 µM. For the same compound, the TGI (IGROV1 ovarian) was > 100 µM, the TGI (MOLT-4 leukemia) was > 100 µM and the TGI (KM12 colon) was > 100 µM. For the same compound, the TGI (LXFL 529 NSCLC) was > 100 µM, the TGI (SF-268 CNS) was > 100 µM and the TGI (SF-295 CNS) was > 100 µM. The TGI (SNB-78 CNS) was > 100 µM, the TGI (DLD-1 colon) was > 100 µM and the TGI (HL-60(TB) leukemia) was > 100 µM. The TGI (HCC-2998 colon) was > 100 µM, the TGI (LOX IMVI melanoma) was > 100 µM and the TGI (SW-620 colon) was > 100 µM. For the same compound, the TGI (UACC-257 melanoma) was > 100 µM, the TGI (SR leukemia) was > 100 µM and the TGI (SK-OV-3 ovarian) was > 100 µM. The TGI (UACC-62 melanoma) was > 100 µM, the TGI (HCT-15 colon) was > 100 µM and the TGI (MALME-3M melanoma) was > 100 µM. The TGI (M14 melanoma) was > 100 µM, the TGI (NCI-H522 lung) was > 100 µM and the TGI (DMS 273 small cell lung) was > 100 µM. The TGI (M19-MEL melanoma) was > 100 µM, the TGI (NCI-H460 lung) was > 100 µM and the TGI (DMS 114 small cell lung) was > 100 µM. The TGI (ACHN renal) was > 100 µM, the TGI (HOP-18 NSCLC) was > 100 µM and the TGI (HOP-62 NSCLC) was > 100 µM. The TGI (OVCAR-5 ovarian) was > 100 µM, the TGI (RXF-631 renal) was > 100 µM and the TGI (OVCAR-4 ovarian) was > 100 µM. For the same compound, the TGI (K-562 leukemia) was > 100 µM, the TGI (NCI-H226 lung) was > 100 µM and the TGI (SK-MEL-5 melanoma) was > 100 µM. For the same compound, the TGI (COLO 205 colon) was > 100 µM, the TGI (OVCAR-8 ovarian) was > 100 µM and the TGI (NCI-H23 lung) was > 100 µM. For the same compound, the TGI (786-0 renal) was > 100 µM, the TGI (CAKI-1 renal) was > 100 µM and the TGI (SNB-19 CNS) was > 100 µM. For the same compound, the TGI (A498 renal) was > 100 µM, the TGI (HOP-92 NSCLC) was > 100 µM and the TGI (RPMI-8226 leukemia) was > 100 µM. For the same compound, the TGI (SK-MEL-28 melanoma) was > 100 µM, the TGI (EKVX NSCLC) was > 100 µM and the TGI (XF 498 CNS) was > 100 µM. For the same compound, the TGI (HT29 colon) was > 100 µM, the TGI (KM20L2 colon) was > 100 µM and the TGI (UO-31 renal) was > 100 µM. For the same compound, the TGI (HCT-116 colon) was > 100 µM, the TGI (A549 NSCLC) was > 100 µM and the TGI (SN12C renal) was > 100 µM. The TGI (OVCAR-3 ovarian) was > 100 µM and the TGI (RXF 393 renal) was > 100 µM.
